Data taken from US12653190B2, “Heteroaryl-triazole compounds as pesticides” (Bayer Aktiengesellschaft, priority 2020, dated 2026).

Tests used:
Assay type in all cases: in vivo
[1] = system: Rhipicephalus (Boophilus) microplus larvae (strain Parkhurst, resistant against synthetic pyrethroids); test: Rhipicephalus (Boophilus) microplus in-vitro contact test, larval cattle tick; details: 5 μg/cm^2 (=500 g/ha), after 48 hours, read-out: efficacy (larvae dead or moribund)
Method in brief: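 Acetone solutions coated onto glass tube walls, 900 ppm giving 5 μg/cm^2; 20–50 larvae per tube after solvent evaporation. Incubated 48 h at 27 °C, 85% relative humidity; efficacy from negative geotaxis, 100% meaning all larvae dead or moribund.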

[2] = system: adult brown dog ticks (Rhipicephalus sanguineus); test: Rhipicephalus sanguineus in-vitro contact test, adult brown dog ticks; details: 5 μg/cm^2 (=500 g/ha), after 48 hours, read-out: efficacy (ticks dead or moribund)
Experimental: Rhipicephalus sanguineus—In-Vitro Contact Tests with Adult Brown Dog Ticks
9 mg compound is solved in 1 mL acetone and diluted with acetone to the desired concentration. 250 μL of the test solution is filled in 25 mL glass test tubes and homogeneously distributed on the inner walls by rotation and tilting on a shaking device (2 h at 30 rpm). With a compound concentration of 900 ppm, an inner surface of 44.7 cm^2 and a homogeneous distribution, a dose of 5 μg/cm^2 is achieved.
After the solvent has evaporated, each test tube is filled with 5-10 adult brown dog ticks (Rhipicephalus sanguineus), closed with a perforated lid and incubated in a lying position at room temperature and relative humidity. After 48 hours efficacy is determined. The ticks are patted on the ground of the tubes and are incubated on a heating plate at 45-50° C. for at most 5 minutes Immotile or uncoordinated moving ticks, which are not able to escape the heat by climbing upwards, are marked as dead or moribund.
An efficacy of 100% means all ticks are dead or moribund; 0% means no ticks are dead or moribund.

[3] = system: adult engorged female ticks (Rhipicephalus microplus); test: Rhipicephalus (Boophilus) microplus injection test; details: 168 h, egg deposition monitored after 7 days, read-out: efficacy (infertile eggs)
Method in brief: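 Five adult engorged female ticks each injected with 1 μL of DMSO compound solution into the abdomen, then kept in a climate chamber. Fertile egg deposition assessed after 7 days, with hatching followed to about 42 days; efficacy 100% means all eggs infertile, 0% all fertile.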

C[C@H](NC(=O)c1cc(Cl)cc(OS(C)(=O)=O)c1)c1ncnn1-c1ccc(C#N)cn1 [Example I-46]
100%: pest or weed control at 5 µg/cm2, 5 µg/cm2 [1] | pest or weed control at 5 µg/cm2, 5 µg/cm2 [2] | pest or weed control at 4 µg/tick ([3]; 4 μg/tick injected) | pest or weed control at 20 µg/tick ([3]; 20 μg/tick injected)
